Patent US12123009B2, “Methods and compositions for PPO herbicide tolerance in plants” (Monsanto Technology LLC, priority 2015, dated 2024)
pIC50: −log10 of the molar value.

Assays:
[1] = system: maize, non-transgenic or F1 containing H_N10 (SEQ ID NO: 4); experiment: Efficacy field trial of F1 maize; type: in vivo
Description: This F1 population was segregating (50% hemizygous and 50% null) and selection for transgenic plants was not conducted prior to injury ratings. The overall average injury ratings for such a population are expected to be higher than a homogenous transgenic population since it is difficult to discern non-transgenic plants from transgenic plants. The trials were conducted at two locations with two replicates and 3 treatments per construct. Non-transgenic maize plants were used as a negative control. The herbicide application treatments were as follows: Treatment 1 was 0.036 lb ai/acre S-3100 applied at V2 followed by (fb) V4 fb V8; Treatment 2: was 0.072 lb ai/acre S-3100 applied at V2 fb V4 fb V8; Treatment 3: was 0.144 lb ai/acre S-3100 applied at V2 fb V4 fb V8. Crop Injury Percent ratings were assessed at the V2 growth stage (CIPV2) and at the V4 growth stage (CIPV4) at 5 to 7 days after treatment (the error V2 and error V4 are half of the least significant difference (LSD)). The crop injury ratings were combined for both locations.

[2] = target: Waterhemp (Amaranthus tuberculata) protoporphyrinogen oxidase (PPO), wild type; experiment: PPO enzyme assay (plastid extract); type: biochemical; conditions: 3 μM protogen; pH 7.4, 30° C.; read-out: S-3100 IC50
[3] = target: Maize (Zea mays) protoporphyrinogen oxidase (PPO), wild type; experiment: PPO enzyme assay (plastid extract); type: biochemical; conditions: 3 μM protogen; pH 7.4, 30° C.; read-out: S-3100 IC50
[4] = system: R0 transgenic soybean expressing HemG PPO with targeting peptide; experiment: R0 transgenic soybean herbicide tolerance: percent injury scores; type: in vivo; conditions: seven days
Source text: This permitted the side-by-side comparison of seven different HemG PPO enzymes with thirty-seven different targeting peptides using the same promoter and 3′UTR elements for gene expression. These plant transformation constructs were used to transform soybean excised embryos (germplasm A3555) using A. tumefaciens and standard methods known in the art. Four hundred explants were inoculated for each construct resulting in twelve containers per construct. A sterile PPO herbicide solution was used for herbicide tolerance testing. The herbicide solution consisted of 0.3 g of S-3100 in crop oil concentrate (5.0 mL) and 495 mL of deionized water. This was filtered through a 0.45 micron Nalgene® Rapid-Flow™ Tissue Culture Filter Unit and Surfactant-Free Cellulose Acetate membrane filter unit (VWR, Radnor, PA, USA). The resulting sterile solution was shaken before application.
The plantlets in the non-sprayed containers corresponding to constructs having a score of 2 were transplanted at approximately 7 weeks post transformation and grown as R0 plants using standard methods known in the art. Plantlets corresponding to non-tolerant scores of 0 and 1 were also grown to serve as negative controls. The R0 plants were grown in a greenhouse under long-day nursery conditions (18 hr light at 80° F. then 6 hr dark at 74° F.) for approximately four weeks. At eleven weeks, the R0 plants were sprayed with two passes of the same herbicide solution (0.3 g of 5-3100) described above. Herbicide injury ratings were collected seven days after treatment.
The results of the herbicide tolerance application at eleven weeks to the R0 plants confirmed the low percent injury rating scores observed in the high-throughput screen at five weeks. Any injury rating of 30% or above was equivalent to non-transgenic soybean injury ratings. A few of the constructs stood out as providing very good tolerance to the herbicide application. […] Data are provided in Table 10, where n.d. indicates the analysis was not conducted.

[5] = system: leaf discs of transgenic maize expressing H_N10 (SEQ ID NO: 4); experiment: Leaf disc assay, maize; type: in vivo; conditions: H_N10, construct 6; 1 micromolar
Description: A leaf-disc assay was employed for rapid and minimally damaging assessment of herbicide tolerance in transgenic plants expressing a recombinant PPO enzyme. Leaf tissue was sampled from the youngest fully-green leaf of corn and soybean plants. Five 4-mm diameter leaf discs were cut from the leaf samples using a disposable biopsy punch with a plunger (Integra® Miltex®, Inc., York. Pennsylvania) and the leaf discs were placed into one ml of incubation solution (1 mM MES, pH 6.5, 1% w/v sucrose, 1% (v/v) acetone) in 24-well polystyrene plates with lids. For herbicide tolerance analysis, S-3100 was added to the incubation solution to a final concentration of 1 micromolar. Vacuum infiltration was applied and plates of leaf discs were incubated in continuous darkness for one day at room temperature (23-24° C.) followed by one (soybean) or two (corn) days continuous light incubation under overhead fluorescent and incandescent bulbs (520 uE) at 26-27° C. Leaf disc injury was then scored visually on a scale from 0 (lowest injury) to 4 (highest injury), with lower scores indicating better tolerance to the PPO herbicide.

[6] = target: H_N70 (SEQ ID NO: 8), microbial HemG protoporphyrinogen oxidase (Pantoea phytostimulans, UniProt A0ACH3N612); experiment: PPO enzyme assay (bacterial extract); conditions: read-out: S-3100 IC50; 3 μM protogen; pH 7.4, 37° C.
H_N70 (SEQ ID NO: 8), microbial HemG protoporphyrinogen oxidase, sequence (A0ACH3N612 entry or part of it): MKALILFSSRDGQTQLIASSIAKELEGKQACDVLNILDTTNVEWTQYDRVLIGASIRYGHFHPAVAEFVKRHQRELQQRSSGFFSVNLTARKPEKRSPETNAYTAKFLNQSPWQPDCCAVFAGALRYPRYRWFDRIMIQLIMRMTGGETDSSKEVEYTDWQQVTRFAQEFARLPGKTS

[7] = H_N10, construct 6, Trt 1, 0.036 lb ai/acre
[8] = H_N10, construct 6, Trt 2, 0.072 lb ai/acre
[9] = H_N10, construct 6, Trt 3, 0.144 lb ai/acre
[10] = H_N10, construct 16, Trt 1, 0.036 lb ai/acre
[11] = H_N10, construct 16, Trt 2, 0.072 lb ai/acre
[12] = H_N10, construct 16, Trt 3, 0.144 lb ai/acre
[13] = wildtype, Trt 1, 0.036 lb ai/acre V2 fb V4 fb V8
[14] = wildtype, Trt 2, 0.072 lb ai/acre V2 fb V4 fb V8
[15] = wildtype, Trt 3, 0.144 lb ai/acre V2 fb V4 fb V8

With `CCOC(=O)COc1ncccc1Oc1cc(-n2c(=O)cc(C(F)(F)F)n(C)c2=O)c(F)cc1Cl` [S-3100, ethyl [3-2-chloro-4-fluoro-5-(1-methyl-6-trifluoromethyl-2,4-dioxo-1,2,3,4-tetrahydropyrimidin-3-yl)phenoxy]-2-pyridyloxylacetate] the “CIPV2 (Crop Injury Percent, V2)” value [1, 7] was 37.5%, the “CIPV4 (Crop Injury Percent, V4)” value [1, 7] was 0% and the “CIPV2 (Crop Injury Percent, V2)” value [1, 8] was 37.5%. The “CIPV4 (Crop Injury Percent, V4)” value [1, 8] was 0%, the “CIPV2 (Crop Injury Percent, V2)” value [1, 9] was 50% and the “CIPV4 (Crop Injury Percent, V4)” value [1, 9] was 0%. For the same molecule, the “CIPV2 (Crop Injury Percent, V2)” value [1, 10] was 96.3%, the “CIPV4 (Crop Injury Percent, V4)” value [1, 10] was 98.5% and the “CIPV2 (Crop Injury Percent, V2)” value [1, 11] was 99.5%. The “CIPV4 (Crop Injury Percent, V4)” value [1, 11] was 99.5%, the “CIPV2 (Crop Injury Percent, V2)” value [1, 12] was 99.5% and the “CIPV4 (Crop Injury Percent, V4)” value [1, 12] was 99.5%. For the same molecule, the “injury following V2 and V4 application” value ([1]; non-transgenic and construct 16, all three treatments) was 94.6-99.5%, the “CIPV2 (Crop Injury Percent, V2)” value [1, 13] was 94.6% and the “CIPV4 (Crop Injury Percent, V4)” value [1, 13] was 99%. For the same molecule, the “CIPV2 (Crop Injury Percent, V2)” value [1, 14] was 99.5%, the “CIPV4 (Crop Injury Percent, V4)” value [1, 14] was 99.5% and the “CIPV2 (Crop Injury Percent, V2)” value [1, 15] was 99.5%. For the same molecule, the “CIPV4 (Crop Injury Percent, V4)” value [1, 15] was 99.5%, the pIC50 [2] was 8.05 and the pIC50 [3] was 8.52. For the same molecule, the percent injury score ([4]; H_N20, TP6) was 15%, the percent injury score ([4]; H_N20, TP7) was 20% and the percent injury score ([4]; H_N30, TP1) was 5%. The percent injury score ([4]; H_N40, TP1) was 5%, the percent injury score ([4]; H_N40, TP4) was 15% and the percent injury score ([4]; H_N40, TP7) was 40%. The percent injury score ([4]; H_N40, TP8) was 30%, the percent injury score ([4]; H_N50, TP6) was 40% and the percent injury score ([4]; H_N90 (SEQ ID NO:11), TP20) was 5%. The percent injury score ([4]; H_N90 (SEQ ID NO:11), TP32) was 50%, the percent injury score ([4]; H_N90, TP1) was 3% and the percent injury score ([4]; H_N90, TP2) was 35%. It also gave a percent injury score ([4]; H_N90, TP3) of 30%, a percent injury score ([4]; H_N90, TP6) of 25% and a percent injury score ([4]; H_N90, TP7) of 15%. It also gave a percent injury score ([4]; H_N90, TP8) of 40%, a percent injury score ([4]; H_N100, TP1) of 15% and a percent injury score ([4]; H_N100, TP6) of 30%. The percent injury score ([4]; H_N100, TP7) was 30%, the “average leaf disc score (0 lowest to 4 highest injury)” value [5] was 0.4 and the pIC50 [6] was under 4.00.
